Laboratory results: patent US20230365592A1 (Agios Pharmaceuticals, Inc., priority 2022, published 2023)

biological target: T1, human PAH with the R408W mutation (Homo sapiens, UniProt P00439, R408W); experiment: Cell Based Phenylalanine Flux Assay; details: A375 cells expressing human R408W PAH; 24 hrs compound incubation; 13C-Tyrosine by LC-MS; average where tested multiple times; read-out: AC50;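 also: after compound treatment, cells received sepiapterin plus isotope-labelled Phenylalanine for 4 hours, then labelled Tyrosine in the medium was quantified, 10-point 2-fold dilution series run in duplicate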
T1 construct: expressed in transfected cells
T1 sequence (P00439 1-452 R408W): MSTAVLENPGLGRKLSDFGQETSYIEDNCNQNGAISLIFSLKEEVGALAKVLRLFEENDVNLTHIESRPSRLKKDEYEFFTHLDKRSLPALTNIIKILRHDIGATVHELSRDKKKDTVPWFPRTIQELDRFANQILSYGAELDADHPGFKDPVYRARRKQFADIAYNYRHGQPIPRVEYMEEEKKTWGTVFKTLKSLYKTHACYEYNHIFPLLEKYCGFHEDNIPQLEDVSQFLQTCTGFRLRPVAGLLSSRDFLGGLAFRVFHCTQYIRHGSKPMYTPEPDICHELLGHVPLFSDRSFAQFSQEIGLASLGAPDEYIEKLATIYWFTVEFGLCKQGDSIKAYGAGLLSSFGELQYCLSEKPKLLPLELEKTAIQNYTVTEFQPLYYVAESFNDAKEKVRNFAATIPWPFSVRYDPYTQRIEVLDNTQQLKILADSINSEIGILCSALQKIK

AC50, 500 to 1000 nM:
Cn1nccc1C(=O)N1CCc2[nH]cnc2[C@H]1c1cc2ccccn2n1 [Example 660, (S)-(1-methyl-1H-pyrazol-5-yl)(4-(pyrazolo[1,5-a]pyridin-2-yl)-6,7-dihydro-1H-imidazo(4,5-c]pyridin-5(4H)-yl)methanone]
O=C(c1nnc(-c2ccn(C(F)F)n2)o1)N1CCc2[nH]cnc2[C@H]1c1cc2ccccn2n1 [Example 666, (S)-(5-(1-(difluoromethyl)-1H-pyrazol-3-yl)-1,3,4-oxadiazol-2-yl)(4-(pyrazolo[1,5-a]pyridin-2-yl)-6,7-dihydro-1H-imidazo[4,5-c]pyridin-5(4H)-yl)methanone]
Cc1ccc(-c2nnc(C(=O)N3CCc4[nH]cnc4[C@H]3c3cc4ccccn4n3)o2)nc1 [Example 673, (S)-(5-(5-methylpyridin-2-yl)-1,3,4-oxadiazol-2-yl)(4-(pyrazolo[1,5-a]pyridin-2-yl)-6,7-dihydro-1H-imidazo[4,5-c]pyridin-5(4H)-yl)methanone]
N#Cc1ncoc1C(=O)N1CCc2[nH]cnc2[C@H]1c1cc2ccc(Br)cn2n1 [Example 682, (S)-5-(4-(6-bromopyrazolo[1,5-a]pyridin-2-yl)-4,5,6,7-tetrahydro-1H-imidazo[4,5-c]pyridine-5-carbonyl)oxazole-4-carbonitrile]
N#Cc1ncoc1C(=O)N1CCc2[nH]cnc2[C@H]1c1cc2ccc(Cl)cn2n1 [Example 684, (S)-5-(4-(6-chloropyrazolo[1,5-a]pyridin-2-yl)-4,5,6,7-tetrahydro-1H-imidazo[4,5-c]pyridine-5-carbonyl)oxazole-4-carbonitrile]

AC50, < 500 nM:
Cn1cc(C(=O)N2CCc3[nH]cnc3[C@H]2c2cc3ccccn3n2)c(C(F)F)n1 [Example 662, (S)-(3-(difluoromethyl)-1-methyl-1H-pyrazol-4-yl)(4-(pyrazolo[1,5-a]pyridin-2-yl)-6,7-dihydro-1H-imidazo[4,5-c]pyridin-5(4H)-yl)methanone]
Cn1cc(C(=O)N2CCc3[nH]cnc3[C@H]2c2cc3ccccn3n2)c(Cl)n1 [Example 665, (S)-(3-chloro-1-methyl-1H-pyrazol-4-yl)(4-(pyrazolo[1,5-a]pyridin-2-yl)-6,7-dihydro-1H-imidazo[4,5-c]pyridin-5(4H)-yl)methanone]
O=C(c1nnc(-c2cc(C(F)(F)F)ccn2)o1)N1CCc2[nH]cnc2[C@H]1c1cc2ccccn2n1 [Example 669, (S)-(4-(pyrazolo[1,5-a]pyridin-2-yl)-6,7-dihydro-1H-imidazo[4,5-c]pyridin-5(4H)-yl)(5-(4-(trifluoromethyl)pyridin-2-yl)-1,3,4-oxadiazol-2-yl)methanone]
CC(C)(O)c1nc(C(F)F)c(C(=O)N2CCc3[nH]cnc3[C@H]2c2cc3ccccn3n2)o1 [Example 670, (S)-(4-(difluoromethyl)-2-(2-hydroxypropan-2-yl)oxazol-5-yl)(4-(pyrazolo[1,5-a]pyridin-2-yl)-6,7-dihydro-1H-imidazo[4,5-c]pyridin-5(4H)-yl)methanone]
CC(C)(O)c1nc(Br)c(C(=O)N2CCc3[nH]cnc3[C@H]2c2cc3ccccn3n2)o1 [Example 676, (S)-(4-bromo-2-(2-hydroxypropan-2-yl)oxazol-5-yl)(4-(pyrazolo[1,5-a]pyridin-2-yl)-6,7-dihydro-1H-imidazo[4,5-c]pyridin-5(4H)-yl)methanone]
Cn1nc(Cl)cc1C(=O)N1CCc2[nH]cnc2[C@H]1c1cc2ccccn2n1 [Example 680, (S)-(3-chloro-1-methyl-1H-pyrazol-5-yl)(4-(pyrazolo[1,5-a]pyridin-2-yl)-6,7-dihydro-1H-imidazo[4,5-c]pyridin-5(4H)-yl)methanone]
N#Cc1ncoc1C(=O)N1CCc2[nH]cnc2[C@H]1c1cc2c(Cl)cccn2n1 [Example 686, (S)-5-(4-(4-chloropyrazolo[1,5-a]pyridin-2-yl)-4,5,6,7-tetrahydro-1H-imidazo[4,5-c]pyridine-5-carbonyl)oxazole-4-carbonitrile]

AC50, 1000 to 5000 nM:
Cn1ccc(-c2nnc(C(=O)N3CCc4[nH]cnc4[C@@H]3c3cc4ccccn4n3)o2)n1 [Example 659, (R)-(5-(1-methyl-1H-pyrazol-3-yl)-1,3,4-oxadiazol-2-yl)(4-(pyrazolo[1,5-a]pyridin-2-yl)-6,7-dihydro-1H-imidazo[4,5-c]pyridin-5(4H)-yl)methanone]
Cn1cc(C(=O)N2CCc3[nH]cnc3[C@@H]2c2cc3ccccn3n2)c(C(F)F)n1 [Example 663, (R)-(3-(difluoromethyl)-1-methyl-1H-pyrazol-4-yl)(4-(pyrazolo[1,5-a]pyridin-2-yl)-6,7-dihydro-1H-imidazo[4,5-c]pyridin-5(4H)-yl)methanone]
O=C(c1cn(-c2ccccn2)nc1Cl)N1CCc2[nH]cnc2[C@H]1c1cc2ccccn2n1 [Example 674, (S)-(3-chloro-1-(pyridin-2-yl)-1H-pyrazol-4-yl)(4-(pyrazolo[1,5-a]pyridin-2-yl)-6,7-dihydro-1H-imidazo[4,5-c]pyridin-5(4H)-yl)methanone]
Cn1cc(-c2nnc(C(=O)N3CCc4[nH]cnc4[C@H]3c3cc4ccccn4n3)o2)c(C(F)(F)F)n1 [Example 678, (S)-(5-(1-methyl-3-(trifluoromethyl)-1H-pyrazol-4-yl)-1,3,4-oxadiazol-2-yl)(4-(pyrazolo[1,5-a]pyridin-2-yl)-6,7-dihydro-1H-imidazo[4,5-c]pyridin-5(4H)-yl)methanone]
N#Cc1ncoc1C(=O)N1CCc2[nH]cnc2[C@@H]1c1cc2c(Cl)cccn2n1 [Example 687, (R)-5-(4-(4-chloropyrazolo[1,5-a]pyridin-2-yl)-4,5,6,7-tetrahydro-1H-imidazo[4,5-c]pyridine-5-carbonyl)oxazole-4-carbonitrile]

AC50, > 5000 nM:
Cn1nccc1C(=O)N1CCc2[nH]cnc2[C@@H]1c1cc2ccccn2n1 [Example 661, (R)-(1-methyl-1H-pyrazol-5-yl)(4-(pyrazolo[1,5-a]pyridin-2-yl)-6,7-dihydro-1H-imidazo[4,5-c]pyridin-5(4H)-yl)methanone]
Cn1cc(C(=O)N2CCc3[nH]cnc3[C@@H]2c2cc3ccccn3n2)c(Cl)n1 [Example 664, (R)-(3-chloro-1-methyl-1H-pyrazol-4-yl)(4-(pyrazolo[1,5-a]pyridin-2-yl)-6,7-dihydro-1H-imidazo[4,5-c]pyridin-5(4H)-yl)methanone]
O=C(c1nnc(-c2ccn(C(F)F)n2)o1)N1CCc2[nH]cnc2[C@@H]1c1cc2ccccn2n1 [Example 667, (R)-(5-(1-(difluoromethyl)-1H-pyrazol-3-yl)-1,3,4-oxadiazol-2-yl)(4-(pyrazolo[1,5-a]pyridin-2-yl)-6,7-dihydro-1H-imidazo[4,5-c)pyridin-5(4H)-yl)methanone]
O=C(c1nnc(-c2cc(C(F)(F)F)ccn2)o1)N1CCc2[nH]cnc2[C@@H]1c1cc2ccccn2n1 [Example 668, (R)-(4-(pyrazolo[1,5-a]pyridin-2-yl)-6,7-dihydro-1H-imidazo[4,5-c]pyridin-5(4H)-yl)(5-(4-(trifluoromethyl)pyridin-2-yl)-1,3,4-oxadiazol-2-yl)methanone]
CC(C)(O)c1nc(C(F)F)c(C(=O)N2CCc3[nH]cnc3[C@@H]2c2cc3ccccn3n2)o1 [Example 671, (R)-(4-(difluoromethyl)-2-(2-hydroxypropan-2-yl)oxazol-5-yl)(4-(pyrazolo[1,5-a]pyridin-2-yl)-6,7-dihydro-1H-imidazo[4,5-c]pyridin-5(4H)-yl)methanone]
Cc1ccc(-c2nnc(C(=O)N3CCc4[nH]cnc4[C@@H]3c3cc4ccccn4n3)o2)nc1 [Example 672, (R)-(5-(5-methylpyridin-2-yl)-1,3,4-oxadiazol-2-yl)(4-(pyrazolo[1,5-a]pyridin-2-yl)-6,7-dihydro-1H-imidazo[4,5-c]pyridin-5(4H)-yl)methanone]
O=C(c1cn(-c2ccccn2)nc1Cl)N1CCc2[nH]cnc2[C@@H]1c1cc2ccccn2n1 [Example 675, (R)-(3-chloro-1-(pyridin-2-yl)-1H-pyrazol-4-yl)(4-(pyrazolo[1,5-a]pyridin-2-yl)-6,7-dihydro-1H-imidazo[4,5-c]pyridin-5(4H)-yl)methanone]
CC(C)(O)c1nc(Br)c(C(=O)N2CCc3[nH]cnc3[C@@H]2c2cc3ccccn3n2)o1 [Example 677, (R)-(4-bromo-2-(2-hydroxypropan-2-yl)oxazol-5-yl)(4-(pyrazolo[1,5-a]pyridin-2-yl)-6,7-dihydro-1H-imidazo[4,5-c]pyridin-5(4H)-yl)methanone]
Cn1cc(-c2nnc(C(=O)N3CCc4[nH]cnc4[C@@H]3c3cc4ccccn4n3)o2)c(C(F)(F)F)n1 [Example 679, (R)-(5-(1-methyl-3-(trifluoromethyl)-1H-pyrazol-4-yl)-1,3,4-oxadiazol-2-yl)(4-(pyrazolo[1,5-a]pyridin-2-yl)-6,7-dihydro-1H-imidazo[4,5-c]pyridin-5(4H)-yl)methanone]
N#Cc1ncoc1C(=O)N1CCc2[nH]cnc2[C@@H]1c1cc2ccc(Br)cn2n1 [Example 683, (R)-5-(4-(6-bromopyrazolo[1,5-a]pyridin-2-yl)-4,5,6,7-tetrahydro-1H-imidazo[4,5-c]pyridine-5-carbonyl)oxazole-4-carbonitrile]
